Assays:
Type in all cases: in vivo
[1] = test system: rTg4510 mice; assay: Cortex size (cortical atrophy), study of Example 2; details: once daily by gavage, 7 and 20 mg/kg, statistical significance at the higher dose, FIG. 6A
Description: (§1) Double transgenic rTg4510 mice are an aggressive Tauopathy model expressing the full-length human Tau carrying the P301L mutation (Tau4R0N-P301L) under the control of the tetracycline-inducible CaMKII promoter (Ramsden et al., 2005). Wild-type animals and single transgenic mice expressing only the tetracycline-controlled transactivator (tTA) were used as genotype controls. Mice were treated and tested. The study comprised 4 treatment groups (n=15 female mice/group) with the following group distribution (see Table 6). Compound of the invention or vehicle control were administered once daily by gavage for 12 weeks starting at the age of 5.5 weeks. The Morris Water Maze (MWM) behavioral test was performed after 12.5 weeks of treatment over 5 consecutive days. During MWM testing daily dosing was continued. Behavioral testing (MWM) and biochemical quantification of sarkosyl-insoluble Tau were performed on all mice (n=15 mice/group). Measurement of cortical atrophy and histology for Iba1 were performed on 10 mice/group.
After behavioral testing, mice were deeply anesthetized by standard injectable anesthesia and transcardially perfused with cold PBS. Brains were then removed and hemi-sagitally hemisected. […] A systematic random set of sections from seven sagittal levels per animal was used to quantify the cortex size.

[2] = target: T1, sarkosyl-insoluble Tau (Homo sapiens, UniProt P10636, P618L); assay: Sarkosyl-insoluble Tau quantification in cortex, study of Example 2; details: rTg4510 mice cortex, once daily by gavage, 7 and 20 mg/kg; statistical significance at 20 mg/kg; FIG. 5
T1 construct: expressing the full-length human Tau carrying the P301L mutation (Tau4R0N-P301L); from tissue; host or cells: brain (cortex) of double transgenic rTg4510 mice
T1 sequence (P10636 1-383 isoform P10636-6 P243L): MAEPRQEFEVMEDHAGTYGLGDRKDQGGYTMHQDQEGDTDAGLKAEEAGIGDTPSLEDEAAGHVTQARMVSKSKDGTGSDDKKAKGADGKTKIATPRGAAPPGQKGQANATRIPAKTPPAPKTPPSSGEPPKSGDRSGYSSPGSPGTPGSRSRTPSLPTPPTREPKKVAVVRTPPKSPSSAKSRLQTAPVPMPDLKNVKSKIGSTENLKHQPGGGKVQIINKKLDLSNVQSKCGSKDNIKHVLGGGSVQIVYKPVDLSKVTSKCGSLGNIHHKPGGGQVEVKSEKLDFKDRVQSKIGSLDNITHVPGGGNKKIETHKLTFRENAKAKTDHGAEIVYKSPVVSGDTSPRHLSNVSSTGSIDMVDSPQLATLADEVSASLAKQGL
Description: as §1
After behavioral testing, mice were deeply anesthetized by standard injectable anesthesia and transcardially perfused with cold PBS. Brains were then removed and hemi-sagitally hemisected. […] The membranes were finally scanned using LiCor scanner (Odyssey Infrared Imager) and quantified using the LiCor software Image Studio Lite Version 5.2. […]

[3] = test system: rTg4510 mice; assay: Morris Water Maze behavioral test, study of Example 2; details: once daily by gavage, 7 and 20 mg/kg, statistical significance at 20 mg/kg, FIG. 4
Description: as §1, with “Measurement of cortical atrophy and histology for Iba1 were performed on 10 mice/group.” left out
The MWM was performed in a circular tank, measuring 48″ in diameter. […] Trials were video recorded and analyzed by a computer program (WaterMaze; Actimetrics, Wilmette, Ill.). […] Percent crossing in each quadrant (target, left and right adjacent, and opposite) was calculated for probe trials. Data were analyzed by 2-way ANOVA followed by post-hoc comparisons and shown statistics refers to differences compared to vehicle treated rTg4510 mice.

sarkosyl insoluble Tau [2]: dose-dependent decrease
Structure (SMILES): CN(C)[C@@H]1CCc2c(c3ccc(Nc4ccc5sc(N6CCOCC6)nc5c4)nc3n2C)C1 [Example 2]
cortex size [1]: dose-dependent increase
percentage of platform crossings in the target compared to the opposite quadrant (MWM probe trial) [3]: dose-dependent increase
